Assay results reported in patent US20220163539A1, “NLRP3 INFLAMMASOME INHIBITION” (Inflazome Limited, priority 2019, published 2022).

Columns and labels:
[1] = biological target: T1, NLRP3 in NLRP3 over-expressing HEK293 cell lysate supernatants (Homo sapiens, UniProt Q96P20); test: Radioligand binding assay with [3H]-MCC7840, gel filtration; details: 200 nM [3H]-MCC7840, 700 μg protein, 4 hrs at RT; minimum of curve fit constrained; read-out: estimated IC50, competition with [3H]-MCC7840
T1 construct: expressed in transfected cells; host or cells: HEK293
Description: As NLRP3 is a cytoplasmic protein a conventional filtration binding assay method could not be used to separate free vs bound radiolabel from cell lysates.
Cell pellets were defrosted over ice and diluted one in two with binding buffer. […] Supernatant was removed and stored at −20° C. Protein determination was performed on these samples using the Pierce BCA kit following the manufacturer's instructions.
Binding buffer volume was dependent on the volume of supernatant used in the assay. Samples were combined together and incubated, with shaking, for 4 hrs @ room temperature.
Briefly, the PD MultiTrap plates were spun down at room temperature (RT), 800 g, for 1 minute to remove the storage buffer. They were washed five times with 300 μl/well binding buffer, 800 g, RT for 1 minute.
80 μl of sample was added per well, spun down at 400 g for 1 minute. 50 μl of the flow through was added to 145 μl Microscint-20 in Optiplates. The plate was shaken for approximately 30 minutes at RT prior to reading in a Perkin Elmer TopCount. Data was analysed using GraphPad Prism.
The specific binding was determined by subtracting the non-specific binding from the total binding.

[2] = tested on: IL-1β release from THP-1 cells; test: IL-1β release assay in THP-1 cells (LPS and nigericin stimulation); details: Homo sapiens, THP-1, read-out: IC50 for inhibition of release of IL-1β from THP-1 cells
Excerpt: An IL-1β release assay in THP-1 cells was used to assess the ability of the different molecules to inhibit inflammasome-mediated cytokine secretion.

T1 sequence (Q96P20 whole entry): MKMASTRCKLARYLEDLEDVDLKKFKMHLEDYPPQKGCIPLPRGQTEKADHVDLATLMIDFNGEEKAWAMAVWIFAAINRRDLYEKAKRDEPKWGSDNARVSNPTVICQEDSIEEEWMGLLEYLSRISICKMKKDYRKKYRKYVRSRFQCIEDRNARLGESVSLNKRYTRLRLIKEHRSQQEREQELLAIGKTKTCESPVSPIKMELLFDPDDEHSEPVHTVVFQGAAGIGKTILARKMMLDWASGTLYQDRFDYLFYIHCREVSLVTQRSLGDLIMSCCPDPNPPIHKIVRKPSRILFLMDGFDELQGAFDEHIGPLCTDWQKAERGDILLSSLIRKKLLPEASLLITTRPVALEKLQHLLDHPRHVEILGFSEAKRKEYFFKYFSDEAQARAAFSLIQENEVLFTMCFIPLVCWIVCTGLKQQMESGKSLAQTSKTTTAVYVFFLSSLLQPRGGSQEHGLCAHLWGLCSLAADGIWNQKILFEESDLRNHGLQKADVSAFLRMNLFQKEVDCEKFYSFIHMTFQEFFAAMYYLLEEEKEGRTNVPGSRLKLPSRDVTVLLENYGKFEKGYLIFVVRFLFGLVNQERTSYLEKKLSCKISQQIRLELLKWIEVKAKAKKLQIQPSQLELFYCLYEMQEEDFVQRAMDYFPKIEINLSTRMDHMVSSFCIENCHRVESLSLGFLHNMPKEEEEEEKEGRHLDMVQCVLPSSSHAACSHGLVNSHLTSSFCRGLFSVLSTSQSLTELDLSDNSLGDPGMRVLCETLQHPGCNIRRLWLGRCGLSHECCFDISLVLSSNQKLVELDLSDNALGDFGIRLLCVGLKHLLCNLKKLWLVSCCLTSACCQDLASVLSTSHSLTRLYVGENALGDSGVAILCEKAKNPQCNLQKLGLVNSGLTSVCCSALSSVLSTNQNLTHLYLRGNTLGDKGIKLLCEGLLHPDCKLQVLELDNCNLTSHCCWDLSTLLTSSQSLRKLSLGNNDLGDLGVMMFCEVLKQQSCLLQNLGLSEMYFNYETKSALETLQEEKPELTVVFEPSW

Row | SMILES | IC50 [1] | IC50 [2]
1 | Nc1ncnc2c1ncn2[C@@H]1O[C@H](COP(=O)(O)OP(=O)(O)OP(=O)(O)O)[C@@H](O)[C@H]1O [ATP] | 75 mM | –
2 | CC(C)(O)c1coc(S(=O)(=O)NC(=O)Nc2c3c(cc4c2CCC4)CCC3)c1 [MCC950] | – | 27 nM
3 | CC(C)n1ccc(S(=O)(=O)NC(=O)Nc2c3c(cc4c2CCC4)CCC3)n1 [MCC7840] | – | 110 nM
